Key:
Type in all cases: physicochemical
[1] = Water content on storage at defined relative humidity at 25° C.
Experimental: The water content of crystalline form A of Tigecycline hydrochloride may vary from about 0-6.0% e.g. the water content is 0% when stored at 1.7% relative humidity at 25° C., 2.7% when stored at 42.7% relative humidity at 25° C. and 5.8% when stored at 80% relative humidity at 25° C.

[2] = Thermal stability: 4-Epi-Tigecycline and total impurities at ambient conditions and after 7 days at 80° C.
Source text: Tigecycline must be available in a physical stable form as well, in order to avoid degradation and as a consequence the building of undesired byproducts.

[3] = Conversion into other crystalline or amorphous forms on storing at elevated temperature; conditions: after storing for 7 days at 80° C.
[4] = Water solubility testing (saturated solution in distilled water, UV-vis at 347 nm)
Experimental: The finished dosage form contains lyophilized amorphous Tigecycline respectively Tigecycline hydrochloride. Before lyophilizing, Tigecycline respectively Tigecycline hydrochloride is dissolved in water, thus water solubility is an important factor to consider.
A UV-vis Lambda 35 spectrophotometer (Perkin-Elmer) was used (λ=347 nm, 1.0 cm quartz cells). Perkin Elmer® UV Win Lab-5.1 software was used.
A saturated solution of Tigecycline respectively Tigecycline hydrochloride in distilled water was prepared and the suspension was stirred at room temperature for 30 minutes with a stirring speed of 1000 U/min. The suspension was filtrated through a 0.45 μm filter. Finally the resulting solution was diluted 10000-fold and measured against water at a wavelength of 347 nm.

[5] = Storage stability of lyophilized amorphous Tigecycline hydrochloride at room temperature; conditions: stored for about 9 months at room temperature
Experimental: Moreover crystalline forms A and B of Tigecycline hydrochloride of the present invention show better physical stability than amorphous Tigecycline hydrochloride. For example amorphous Tigecycline hydrochloride was prepared by lyophilization and stored for about 9 months at room temperature. […] Therefore amorphous Tigecycline hydrochloride is not suitable as an intermediate for the formulation of an anti-infective medicament, due to the low stability.

[6] = after storing for 7 days at 80° C.

Question: Which “water content, span of variation” value ([1]; may vary, depending on relative humidity) does the source give for `CN(C)c1cc(NC(=O)CNC(C)(C)C)c(O)c2c1C[C@H]1C[C@H]3[C@H](N(C)C)C(O)=C(C(N)=O)C(=O)[C@@]3(O)C(O)=C1C2=O.Cl` [Form A, Tigecycline hydrochloride] here?
Answer: 0-6.0%

Question: And the water content ([1]; stored at 1.7% relative humidity at 25° C.)?
Answer: 0%

Question: And the water content ([1]; stored at 42.7% relative humidity at 25° C.)?
Answer: 2.7%

Question: What about the water content ([1]; stored at 80% relative humidity at 25° C.) of the same molecule?
Answer: 5.8%

Question: What about the “change in 4-Epi-Tigecycline content (in words)” value [2, 6] of the same molecule?
Answer: practically did not change

Question: What about the “change in total impurities (in words)” value [2, 6] of the same molecule?
Answer: low

Question: And the “4-EPI-TIGECYCLINE AT AMBIENT CONDITIONS” value ([2]; listed as A, hydrochloride)?
Answer: 0.84

Question: What about the “TOTAL IMPURITIES AT AMBIENT CONDITIONS” value ([2]; listed as A, hydrochloride) of the same molecule?
Answer: 1.07

Question: And the “conversion into other crystalline or amorphous forms” value [3]?
Answer: did not convert

Question: What about the “water solubility compared with the other crystalline forms (in words)” value [4] of the same molecule?
Answer: highest water solubility

Question: What about the solubility thermodynamic at 30 min ([4]; water, saturated solution in distilled water, stirred 30 minutes at room temperature, filtered 0.45 μm, read-out: Water solubility, CONCENTRATION) of the same molecule?
Answer: 503 mg/mL

Question: Which “4-EPI-TIGECYCLINE AT AMBIENT CONDITIONS” value ([2]; listed as B, hydrochloride) does the source give for `CN(C)c1cc(NC(=O)CNC(C)(C)C)c(O)c2c1C[C@H]1C[C@H]3[C@H](N(C)C)C(O)=C(C(N)=O)C(=O)[C@@]3(O)C(O)=C1C2=O.Cl` [Form B, Tigecycline hydrochloride] here?
Answer: 0.93

Question: And the “TOTAL IMPURITIES AT AMBIENT CONDITIONS” value ([2]; listed as B, hydrochloride)?
Answer: 1.91

Question: What about the “Water solubility, CONCENTRATION” value ([4]; saturated solution in distilled water, stirred 30 minutes at room temperature, filtered 0.45 μm, hydrochloride) of the same molecule?
Answer: 323 mg/mL

Question: Which “change in total impurities (in words)” value [2, 6] does the source give for `CN(C)c1cc(NC(=O)CNC(C)(C)C)c(O)c2c1C[C@H]1C[C@H]3[C@H](N(C)C)C(O)=C(C(N)=O)C(=O)[C@@]3(O)C(O)=C1C2=O` [WO 2006/128150 I, (4S,4aS,5aR,12aS)-4,7-Bis(dimethylamino)-9-[[[(1,1-dimethylethyl)amino]acetyl]amino]-1,4,4a,5,5a,6,11,12a-octahydro-3,10,12,12a-tetrahydroxy-1,11-dioxo-2-naphthacenecarboxamide] here?
Answer: tremendous increase

Question: And the “4-EPI-TIGECYCLINE AT AMBIENT CONDITIONS” value [2]?
Answer: 0.36

Question: What about the “TOTAL IMPURITIES AT AMBIENT CONDITIONS” value [2] of the same molecule?
Answer: 0.75

Question: For `CN(C)c1cc(NC(=O)CNC(C)(C)C)c(O)c2c1C[C@H]1C[C@H]3[C@H](N(C)C)C(O)=C(C(N)=O)C(=O)[C@@]3(O)C(O)=C1C2=O` [WO 2006/128150 II, (4S,4aS,5aR,12aS)-4,7-Bis(dimethylamino)-9-[[[(1,1-dimethylethyl)amino]acetyl]amino]-1,4,4a,5,5a,6,11,12a-octahydro-3,10,12,12a-tetrahydroxy-1,11-dioxo-2-naphthacenecarboxamide], which “change in total impurities (in words)” value [2, 6] is on record?
Answer: tremendous increase

Question: And the “4-EPI-TIGECYCLINE AT AMBIENT CONDITIONS” value [2]?
Answer: 1.04

Question: What about the “TOTAL IMPURITIES AT AMBIENT CONDITIONS” value [2] of the same molecule?
Answer: 1.60

Question: With `CN(C)c1cc(NC(=O)CNC(C)(C)C)c(O)c2c1C[C@H]1C[C@H]3[C@H](N(C)C)C(O)=C(C(N)=O)C(=O)[C@@]3(O)C(O)=C1C2=O` [WO 2006/128150 III, (4S,4aS,5aR,12aS)-4,7-Bis(dimethylamino)-9-[[[(1,1-dimethylethyl)amino]acetyl]amino]-1,4,4a,5,5a,6,11,12a-octahydro-3,10,12,12a-tetrahydroxy-1,11-dioxo-2-naphthacenecarboxamide] as the molecule, how does the “4-EPI-TIGECYCLINE 7 DAYS AT 80° C.” value ([2]; after storing 7 days at 80° C.) read?
Answer: 2.18

Question: What about the TOTAL IMPURITIES 7 DAYS AT 80° C. ([2]; after storing 7 days at 80° C.) of the same molecule?
Answer: 4.46%

Question: And the “4-EPI-TIGECYCLINE AT AMBIENT CONDITIONS” value [2]?
Answer: 0.16

Question: What about the TOTAL IMPURITIES AT AMBIENT CONDITIONS [2] of the same molecule?
Answer: 0.16%

Question: What about the “Water solubility, CONCENTRATION” value ([4]; saturated solution in distilled water, stirred 30 minutes at room temperature, filtered 0.45 μm) of the same molecule?
Answer: 174 mg/mL

Question: What does the source list for `CN(C)c1cc(NC(=O)CNC(C)(C)C)c(O)c2c1C[C@H]1C[C@H]3[C@H](N(C)C)C(O)=C(C(N)=O)C(=O)[C@@]3(O)C(O)=C1C2=O` [WO 2006/128150 IV, (4S,4aS,5aR,12aS)-4,7-Bis(dimethylamino)-9-[[[(1,1-dimethylethyl)amino]acetyl]amino]-1,4,4a,5,5a,6,11,12a-octahydro-3,10,12,12a-tetrahydroxy-1,11-dioxo-2-naphthacenecarboxamide]?
Answer: 4-EPI-TIGECYCLINE AT AMBIENT CONDITIONS [2]: 0.23; TOTAL IMPURITIES AT AMBIENT CONDITIONS [2]: 0.40

Question: Which results are given for `CN(C)c1cc(NC(=O)CNC(C)(C)C)c(O)c2c1C[C@H]1C[C@H]3[C@H](N(C)C)C(O)=C(C(N)=O)C(=O)[C@@]3(O)C(O)=C1C2=O` [WO 2006/128150 V, (4S,4aS,5aR,12aS)-4,7-Bis(dimethylamino)-9-[[[(1,1-dimethylethyl)amino]acetyl]amino]-1,4,4a,5,5a,6,11,12a-octahydro-3,10,12,12a-tetrahydroxy-1,11-dioxo-2-naphthacenecarboxamide]?
Answer: 4-EPI-TIGECYCLINE AT AMBIENT CONDITIONS [2]: <0.05; TOTAL IMPURITIES AT AMBIENT CONDITIONS [2]: 0.22

Question: Which “4-EPI-TIGECYCLINE AT AMBIENT CONDITIONS” value ([2]; listed as WO2007/127792 I) does the source give for `CN(C)c1cc(NC(=O)CNC(C)(C)C)c(O)c2c1C[C@H]1C[C@H]3[C@H](N(C)C)C(O)=C(C(N)=O)C(=O)[C@@]3(O)C(O)=C1C2=O` [WO 2007/127292 I, (4S,4aS,5aR,12aS)-4,7-Bis(dimethylamino)-9-[[[(1,1-dimethylethyl)amino]acetyl]amino]-1,4,4a,5,5a,6,11,12a-octahydro-3,10,12,12a-tetrahydroxy-1,11-dioxo-2-naphthacenecarboxamide] here?
Answer: 0.34

Question: And the “TOTAL IMPURITIES AT AMBIENT CONDITIONS” value ([2]; listed as WO2007/127792 I)?
Answer: 0.59

Question: Which “4-EPI-TIGECYCLINE AT AMBIENT CONDITIONS” value ([2]; listed as WO2007/127792 II) does the source give for `CN(C)c1cc(NC(=O)CNC(C)(C)C)c(O)c2c1C[C@H]1C[C@H]3[C@H](N(C)C)C(O)=C(C(N)=O)C(=O)[C@@]3(O)C(O)=C1C2=O` [WO 2007/127292 II, (4S,4aS,5aR,12aS)-4,7-Bis(dimethylamino)-9-[[[(1,1-dimethylethyl)amino]acetyl]amino]-1,4,4a,5,5a,6,11,12a-octahydro-3,10,12,12a-tetrahydroxy-1,11-dioxo-2-naphthacenecarboxamide] here?
Answer: 0.17

Question: And the “TOTAL IMPURITIES AT AMBIENT CONDITIONS” value ([2]; listed as WO2007/127792 II)?
Answer: 0.24

Question: With `CN(C)c1cc(NC(=O)CNC(C)(C)C)c(O)c2c1C[C@H]1C[C@H]3[C@H](N(C)C)C(O)=C(C(N)=O)C(=O)[C@@]3(O)C(O)=C1C2=O.Cl` [amorphous Tigecycline hydrochloride, Tigecycline hydrochloride] as the molecule, how does the 4-Epi-Tigecycline content [5] read?
Answer: 19.56%

Question: What about the total impurities [5] of the same molecule?
Answer: 21.55%
